system: Sommerweizen; experiment: Field test of gametocidal activity (sterilisation of anthers), spring wheat; type: in vivo; conditions: Sorte Botanitscheskaja 4; V. Periode der Organogenese; 1%ige wäßrige Emulsion; 6 kg/ha
Text: Die gametozide Aktivitat der erfindungsgemäßen Sterilisationsmittel war im Feldversuch in verschiedenen bodenklimatischen Zonen mit Teilstücken von 10 m^2 Größe in drei- bis viermaliger Wiederholung festgestellt. Jedes Sterilisationsmittel wurde mindenstens 5 Jahre lang geprüft.
Die Entwicklung der Perioden der Organogenese wird zytologisch überwacht. Die Behandlung von Pflanzen mit dem Sterilisationsmittel erfolgt am Anfang der fünften Periode der Organogenese nach Kupermann.
Mit dem Ährenschieben verwirklicht man die Isolierung von Hauptähren und anderen Stockwerken in Pergamentbeuteln. Bei Weizen und Tritikale werden Einzelisolatoren benutzt. Bei Roggen schließt man je Ähre 5 bis 7 verschiedene nebeneinander befindliche Pflanzen unter einen gemeinsamen Isolator ein. Bei Hierse wird jede Rispe getrennt isoliert. Der Sterilitätsprozentsatz (X) für Weizen, Roggen, Tritikale und Hirse wird nach der Formel [formula] ermittelt.
Die Kornzahl in nicht isolierten Ähren von Kontrollpflanzen wird bedingt für 100 % Ansetzen bei freier Bestäubung angenommen.
Um zuverlässige Angaben zu erhalten, verwendet man 20 bis 25 Isolatoren jeder Wiederholung für Weizen und Tritikale, 10 .bis 15 Isolatoren jeder Wiederholung für Roggen und Hirse.
Pflanzen des Sommerweizens Sorte Moskowskaja 35 werden in der V. Periode der Organogenese (nach Kupermann) mit 1%iger wäßriger Emulsion von δ, δ' -Thiodivaleriansäure, Natriumsalz der δ, δ' -Thiodivaleriansäure, δ, δ'--Sulfonyldivaleriansäure, Natriumsalz der d, δ' -Sulfonyldivaleriansäure, Kaliumsalz der δ, δ' -Sulfornyldivaleriansäure, Bis (die-n-butyläther) der δ, δ' -Thiodivaleriansäure, 4-Karboxybutyldezylsulfid, Bis(2-äthylhexyläther) der δ, δ' -Thiodivaleriansäure behandelt. Die Emulsion enthält 0,1 Masse% Kalziumalkylbenzolsulfonat mit 12 bis 14 Kohlenstoffatomen und 0,01 Masse% Dimethylsulfoxid. Der Verbrauch an Präparat beträgt 6 kg/ha. Als Kontrolle dienen Pflanzen, behandelt mit einem Verdünner ohne Sterilisationsmittel. Die Prüfergebnisse sind in der Tabelle 4 angegeben. […] Periode der Organogenese erhalten.
(§1) Pflanzen des Sommerweizens Sorte Rodina werden in der V. Periode der Organogenese (nach Kupermann) mit l%iger wäßriger Emulsion von δ, δ' -Sulfornyldivaleriansäure, 4-Karboxybutyldezylsulfid, Bis(2-äthylhexyläther) der δ, δ' -Thiodivaleriansäure behandelt. Die Emulsion enthält 0,1 Masse% Kalziumalkylbenzolsulfonat mit 12 bis 14 Kohlenstoffatomen und 0,01 Masse% Tetrahydrofuran. Der Verbrauch an Präparat beträgt 6 kg/ha. Als Kontrolle dienen Pflanzen, behandelt mit einem Verdünner ohne Sterilisationsmittel. Die Prüfergebnisse sind in der Tabelle 5 angegeben. […] Periode der Organogenese erhalten.
Pflanzen des Sommerwizens Sorte Charkowskaja 9 werden in der V. Periode der Organogenese (nach Kupermann.) mit 1%iger waßriger Emulsion von Bis(di-n-butyläther) der δ, δ' -Thiodivaleriansäure, Bis(2-äthylhexyläther) der δ, δ' -Thiodivaleriansäure behandelt. Die Emulsion enthält 0,1 Masse% Kalziumalkylbenzolsulfonat mit 12 bis 14 Kohlenstoffatomen und 0,01 Masse% Äthylenglykol. Der Verbrauch an Präparat beträgt 8 kg/ha. Als Kontrolle dienen Pflanzen, behandelt mit einem Verdünner ohne Sterilisationsmittel. Die Prüfergebnisse sind in der Tabelle 6 angegeben. […] Periode der Organogenese erhalten.
as §1, with “Botanitscheskaja 4” for “Rodina”, “1%iger” for “l%iger”, “von Natriumsatz der” for “von”, “--Thiodivaleriansäure, Bis(di-n-butyläther) der δ, δ' -Thiodiväleriansäure,” for “-Sulfornyldivaleriansäure,”, “Dodezylsulfat.” for “Tetrahydrofuran.”, “7” for “5”

| Compound | Anzahl von Körnern der Ähre bei freier Bestäubung | Anzahl von Körnern der Ähre im Isolator | Prozentsatz der Sterilität | Prozentsatz des Ansetzens von Körnern bei freier Bestäubung |
| --- | --- | --- | --- | --- |
| O=C([O-])CCCCSCCCCC(=O)[O-].[Na+].[Na+] [Beispiel 28, Natriumsatz der δ, δ' --Thiodivaleriansäure] | 36,2 | 0,3 | 99,2% | 90,0% |
| CCCCCCCCCCSCCCCC(=O)O [Beispiel 30, 4-Karboxybutyldezylsulfid] | 32,8 | 0,0 | 100,0% | 81,6% |
| CCCCC(CC)COC(=O)CCCCSCCCCC(=O)OCC(CC)CCCC (centres unmarked) [Beispiel 31, Bis(2-äthylhexyläther) der δ, δ' -Thiodivaleriansäure] | 33,4 | 0,0 | 100,0% | 83,1% |
| Bis(di-n-butyläther) der δ, δ' -Thiodiväleriansäure [Beispiel 29] | 30,6 | 0,0 | 100,0% | 76,2% |

same assay, conditions: Sorte Charkowskaja 9; V. Periode der Organogenese; 1%ige Emulsion; 8 kg/ha

| Compound | Anzahl von Körnern der Ähre bei freier Bestäubung | Anzahl von Körnern der Ähre im Isolator | Prozentsatz der Sterilität | Prozentsatz des Ansetzens von Körnern bei freier Bestäubung |
| --- | --- | --- | --- | --- |
| CCCCC(CC)COC(=O)CCCCSCCCCC(=O)OCC(CC)CCCC (centres unmarked) [Beispiel 27, Bis(2-äthylhexyläther) der δ, δ' -Thiodivaleriansäure] | 28,6 | 0,0 | 100,0% | 88,9% |
| Bis(di-n-butyläther) der δ, δ' -Thiodivaleriansäure [Beispiel 26] | 28,7 | 0,0 | 100,0% | 89,1% |

same assay, conditions: Sorte Moskowskaja 35; V. Periode der Organogenese; 1%ige wäßrige Emulsion; 6 kg/ha

| Compound | Anzahl von Körnern der Ähre bei freier Bestäubung | Anzahl von Körnern der Ähre im Isolator | Prozentsatz der Sterilität | Prozentsatz des Ansetzens von Körnern bei freier Bestäubung |
| --- | --- | --- | --- | --- |
| O=C(O)CCCCSCCCCC(=O)O [Beispiel 15, δ, δ' -Thiodivaleriansäure] | 31,7 | 0,9 | 97,0% | 98,3% |
| O=C([O-])CCCCSCCCCC(=O)[O-].[Na+].[Na+] [Beispiel 16, Natriumsalz der δ, δ' -Thiodivaleriansäure] | 30,8 | 0,9 | 97,0% | 96,5% |
| O=C(O)CCCCS(=O)(=O)CCCCC(=O)O [Beispiel 17, δ, δ'--Sulfonyldivaleriansäure] | 26,7 | 0,0 | 100,0% | 83,6% |
| O=C([O-])CCCCS(=O)(=O)CCCCC(=O)[O-].[Na+].[Na+] [Beispiel 18, Natriumsalz der d, δ' -Sulfonyldivaleriansäure] | 31,1 | 0,3 | 99,0% | 97,4% |
| O=C([O-])CCCCS(=O)(=O)CCCCC(=O)[O-].[K+].[K+] [Beispiel 19, Kaliumsalz der δ, δ' -Sulfornyldivaleriansäure] | 30,5 | 0,3 | 99,0% | 95,6% |
| CCCCCCCCCCSCCCCC(=O)O [Beispiel 21, 4-Karboxybutyldezylsulfid] | 26,9 | 0,0 | 100,0% | 84,3% |
| CCCCC(CC)COC(=O)CCCCSCCCCC(=O)OCC(CC)CCCC (centres unmarked) [Beispiel 22, Bis(2-äthylhexyläther) der δ, δ' -Thiodivaleriansäure] | 25,7 | 0,0 | 100,0% | 80,6% |
| Bis (die-n-butyläther) der δ, δ' -Thiodivaleriansäure [Beispiel 20] | 28,7 | 0,0 | 100,0% | 89,9% |

same assay, conditions: Sorte Rodina; V. Periode der Organogenese; 1%ige wäßrige Emulsion; 6 kg/ha

| Compound | Anzahl von Körnern der Ähre bei freier Bestäubung | Anzahl von Körnern der Ähre im Isolator | Prozentsatz der Sterilität | Prozentsatz des Ansetzens von Körnern bei freier Bestaubung |
| --- | --- | --- | --- | --- |
| O=C(O)CCCCS(=O)(=O)CCCCC(=O)O [Beispiel 23, δ, δ' -Sulfornyldivaleriansäure] | 36,1 | 0,0 | 100,0% | 96,3% |
| CCCCCCCCCCSCCCCC(=O)O [Beispiel 24, 4-Karboxybutyldezylsulfid] | 29,8 | 0,0 | 100,0% | 79,5% |
| CCCCC(CC)COC(=O)CCCCSCCCCC(=O)OCC(CC)CCCC (centres unmarked) [Beispiel 25, Bis(2-äthylhexyläther) der δ, δ' -Thiodivaleriansäure] | 31,2 | 0,0 | 100,0% | 83,2% |

Reference: patent EP0362382A1, “METHOD OF STERILIZING PLANT POLLEN” (VSESOJUZNY NAUCHNO-ISSLEDOVATELSKY INST. SELSKOKHOZYAISTV. …, priority 1988, dated 1989)
